For data set [1] the following is noted: literature (Tabosa Do Egito et al. 1996); cited from earlier work.
In data set [2] the test system is Candida parapsilosis (ATCC 22019). As to the kind of experiment: In vitro antifungal activity MIC80 (NCCLS M27A). Particulars: MIC80, 48 hours, 37° C.; DPV15-AmB and AmB in μg/ml of AmB active product.
Data set [3] deals with OVCAR-3: human ovary carcinoma. The data set is described as follows: cells. Particulars: OVCAR-3 ovary carcinoma; 1 h incubation + 72 h post-incubation. Type of data set: cell-based. Here is the method:
OVCAR-3: human ovary carcinoma (origin: ATCC #HTB-161)
(§1) Viability assays were performed. Briefly, cells are seeded in 96-well plates and incubated with increasing concentrations of drugs for 1 hour then cells are rinsed and incubated with fresh medium without drugs for 72 hours. A WST-1 test (from Roche) was performed and IC50 values (drug concentration that inhibits 50% of cell viability) were estimated from sigmoidal regressions.
(§2) We tested the inhibition of in vitro cell proliferation of human carcinoma cells, and we calculated IC50 values=drug concentration that inhibits 50% of cell viability.

The subject of data set [4] is NCI-H1299: human non small cell lung carcinoma. The data set is described as follows: cells. It counts as cell-based. Particulars: H1299 NSCLC; 1 h incubation + 72 h post-incubation. As for the experimental part:
NCI-H1299: human non small cell lung carcinoma (NSCLC) (origin: ATCC #CRL-5803)
as §1, §2

Data set [5] relates to MES-SA/Dx5: human uterine sarcoma, resistant to paclitaxel. Particulars: read-out: IC50 values, 1 h incubation + 72 h post-incubation.
Source text: MES-SA/Dx5: human uterine sarcoma, resistant to paclitaxel, expressing high P-gp (origin: ATCC #CCL-1977).
Data set [6] in a line: Solubility in water / aqueous solutions. Particulars: water.

Converted amounts (≈) assume the structure as drawn. Where a SMILES comes first, the peptide text is derived from it. The star is where a group is joined. X3 = CC(=O)O[C@H]1C(=O)[C@@]2(C)[C@H]([C@H](OC(=O)c3ccccc3)[C@]3(O)C[C@H](OC(=O)[C@H](OC(=O)CCCCCN4C(=O)CC(*)C4=O)[C@@H](NC(=O)c4ccccc4)c4ccccc4)C(C)=C1C3(C)C)[C@]1(OC(C)=O)CO[C@@H]1C[C@@H]2O

The MIC is the smallest concentration in the dilution series that meets the test's criterion for growth inhibition. High values mean a need for much substance, low ones inhibition by little substance. Take `C[C@@H]1[C@H](O)[C@@H](C)/C=C/C=C/C=C/C=C/C=C/C=C/C=C/[C@H](O[C@@H]2O[C@H](C)[C@@H](O)[C@H](N)[C@@H]2O)C[C@@H]2O[C@](O)(C[C@@H](O)C[C@@H](O)[C@H](O)CC[C@@H](O)C[C@@H](O)CC(=O)O[C@H]1C)C[C@H](O)[C@H]2C(=O)O` [AmB, Amphotericin B]: the MTD in data set [1] is listed as 1 mg/kg. In data set [2], this compound had an MIC of 0.25 µg/mL (≈ 0.271 µM).
As a reminder, the IC50 is the concentration that gives 50% inhibition. The term solubility denotes the dissolved amount per volume that the medium holds. A high value points to a readily soluble substance. As to `CC(=O)O[C@H]1C(=O)[C@@]2(C)[C@H]([C@H](OC(=O)c3ccccc3)[C@]3(O)C[C@H](OC(=O)[C@H](OC(=O)CCCCCN4C(=O)CC(SC[C@H](NC(=O)[C@H](CCCNC(=N)N)NC(=O)[C@H](CO)NC(=O)[C@H](CCC(N)=O)NC(=O)[C@H](CCCNC(=N)N)NC(=O)[C@H](CCC(=O)O)NC(=O)[C@H](CCCNC(=N)N)NC(=O)[C@H](CCCNC(=N)N)NC(=O)[C@H](CC(C)C)NC(=O)[C@H](CCCNC(=N)N)NC(=O)[C@H](CO)NC(=O)[C@H](CCC(N)=O)NC(=O)[C@H](CCCNC(=N)N)NC(=O)[C@H](CCC(=O)O)NC(=O)[C@H](CCCNC(=N)N)NC(=O)[C@H](CCCNC(=N)N)NC(=O)[C@@H](N)CC(C)C)C(=O)O)C4=O)[C@@H](NC(=O)c4ccccc4)c4ccccc4)C(C)=C1C3(C)C)[C@]1(OC(C)=O)CO[C@@H]1C[C@@H]2O` (stereo partly drawn) [DPV15-E-PTX] (H-LRRERQSRLRRERQSRC(X3)-OH), the IC50 in data set [3] worked out at 0.37 ± 0.05 µM; in data set [4], 4.3 ± 2.7 µM; in data set [5] it was 33 ± 5.7 µM. Also, the solubility in data set [6] is at least 10000 µg/mL.

The values above are taken from US7544664B2, “Sequences facilitating penetration of a substance of interest” (priority 2003, dated 2009).
